Data from PMC10294832, “Investigation of Naphthyl–Polyamine Conjugates as Antimicrobials and Antibiotic Enhancers” (Antibiotics, 2023).
pIC50: −log10 of the molar value. Where two headings read alike, the source gives them in different places.

Columns and labels:
[1] = system: S. aureus (ATCC 25,923 or ATCC 29213); experiment: Antimicrobial MIC, S. aureus; type: cell-based, Staphylococcus aureus; conditions: Staphylococcus aureus, mean (n = 3)
Procedure, shortened: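 MICs for the […] bacteria came from an in-house susceptibility test run to an earlier published protocol. The yeasts were screened externally at CO-ADD, University of Queensland, under that facility's standard procedures.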

MRSA (ATCC 43300) = experiment: Antimicrobial MIC, MRSA; type: cell-based, methicillin-resistant Staphylococcus aureus; conditions: MRSA (ATCC 43300), mean (n = 2), read-out: MIC MRSA
[2] = system: P. aeruginosa (PAO1 or ATCC 27853); experiment: Antimicrobial MIC, P. aeruginosa; type: cell-based; conditions: Pseudomonas aeruginosa; P. aeruginosa (PAO1 or ATCC 27853); mean (n = 3); read-out: MIC P. a
Procedure, shortened: (§1)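 E. coli and P. aeruginosa susceptibility was determined in-house following previously reported protocols. C. albicans and C. neoformans were tested by the Community for Open Antimicrobial Drug Discovery (University of Queensland) using its standard protocols. Values are MICs.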

E. coli (ATCC 25922) [3] = experiment: Antimicrobial MIC, E. coli; type: cell-based, Escherichia coli; conditions: Escherichia coli, ATCC25922, E. coli (ATCC 25922); mean (n = 2)
Procedure, shortened: as §1

[4] = system: K. pneumoniae (ATCC 700603); experiment: Antimicrobial MIC, K. pneumoniae; type: cell-based; conditions: Klebsiella pneumoniae, ATCC700603, mean (n = 2)
[5] = system: A. baumannii (ATCC 19606); experiment: Antimicrobial MIC, A. baumannii; type: cell-based, Acinetobacter baumannii; conditions: mean (n = 2)
C. albicans (ATCC 90028) = experiment: Antifungal MIC, C. albicans; type: cell-based; conditions: Candida albicans, ATCC90028, mean (n = 2)
Procedure, shortened: as §1

[6] = system: C. neoformans (ATCC 208821); experiment: Antifungal MIC, C. neoformans; type: cell-based, Cryptococcus neoformans; conditions: mean (n = 2)
Procedure, shortened: as §1

Cytotoxicity assay = type: cell-based, human; conditions: human, HEK293 human embryonic kidney cells, concentration at 50% cytotoxicity on HEK293 cells; mean (n = 2)
Procedure: Cytotoxicity assays were conducted using the protocols previously reported.

human red blood cells = experiment: Hemolytic assay; type: cell-based; conditions: concentration at 10% hemolytic activity on human red blood cells; mean (n = 2)
Procedure: Hemolysis assays were conducted using the protocols previously reported.

[7] = system: P. aeruginosa (ATCC 27853); experiment: Enhancement of doxycycline activity; type: cell-based, Pseudomonas aeruginosa; conditions: for Dox/P.a: concentration required to restore doxycycline activity (combination MIC): doxycycline fixed at 4.5 µM (2 µg/mL), P. aeruginosa (ATCC 27853); for Dox/P.a fold change: ratio between intrinsic MIC of test compound and combination MIC, doxycycline 4.5 µM, P. aeruginosa
E. coli (ATCC 25922) [8] = experiment: Enhancement of erythromycin activity; type: cell-based, Escherichia coli; conditions: for Eryth/E.c: concentration required to restore erythromycin activity (combination MIC): erythromycin fixed at 10.9 µM (8 µg/mL), E. coli (ATCC 25922); for Eryth/E.c fold change: ratio between intrinsic MIC of test compound and combination MIC, erythromycin 10.9 µM, E. coli
Procedure: Restoring enhancer concentrations were determined using previously reported protocols.

[9] = Acinetobacter baumannii, ATCC19606, A. baumannii (ATCC 19606)
[10] = Cryptococcus neoformans, ATCC208821, C. neoformans (ATCC 208821)

In the case of O=C(CCC(=O)Nc1ccc2ccccc2c1)NCCCNCCCCCCCCNCCCNC(=O)CCC(=O)Nc1ccc2ccccc2c1.O=C(O)C(F)(F)F.O=C(O)C(F)(F)F [Compound 20d, N^1,N^8-Bis(3-(4-(naphthalen-2-ylamino)-4-oxobutanamido)propyl)octane-1,8-diaminium 2,2,2-trifluoroacetate], the MIC [1] was 13.3 µM, the MIC (MRSA (ATCC 43300); Staphylococcus aureus) was greater than 34.2 µM and the MIC [2] was greater than 107 µM. It also gave an MIC (E. coli (ATCC 25922) [3]) of 107 µM, an MIC [4] greater than 34.2 µM and an MIC [5, 9] greater than 34.2 µM. For the same compound, the MIC (C. albicans (ATCC 90028)) was greater than 34.2 µM, the MIC [6, 10] was 17.1 µM and the pIC50 (Cytotoxicity assay) was less than 4.47. For the same compound, the “Hemolysis HC10” value (human red blood cells) was greater than 34.2 µM, the “Dox/P.a: concentration required to restore doxycycline activity (combination MIC)” value (“Dox/P.a: concentration required” for short) [7] was 53.4 µM and the Dox/P.a fold change [7] was greater than 2 fold. The “Eryth/E.c: concentration required to restore erythromycin activity (combination MIC)” value (from here on “Eryth/E.c: concentration required”) (E. coli (ATCC 25922) [8]) was 26.7 µM and the Eryth/E.c fold change (E. coli (ATCC 25922) [8]) was 4 fold.
In the case of O=C(NCCCNCCCCCCCCCCCCNCCCNC(=O)c1ccc2ccccc2c1)c1ccc2ccccc2c1.O=C(O)C(F)(F)F.O=C(O)C(F)(F)F [Compound 19f, N^1,N^12-Bis(3-(2-naphthamido)propyl)dodecane-1,12-diaminium 2,2,2-trifluoroacetate], the MIC [1] was 100 µM, the MIC (MRSA (ATCC 43300)) was 0.294 µM and the MIC (MRSA (ATCC 43300); Staphylococcus aureus) was 0.29 µM. For the same compound, the MIC [2] was 300 µM, the MIC (E. coli (ATCC 25922) [3]) was 300 µM and the MIC [4] was greater than 37.6 µM. It also gave an MIC ([5]; A. baumannii (ATCC 19606)) of 0.294 µM, an MIC [5, 9] of 0.29 µM and an MIC (C. albicans (ATCC 90028)) greater than 37.6 µM. The MIC ([6]; C. neoformans (ATCC 208821)) was 0.294 µM, the MIC [6, 10] was 0.29 µM and the pIC50 (Cytotoxicity assay) was less than 4.42. The “Hemolysis HC10” value (human red blood cells) was greater than 37.6 µM, the “Dox/P.a: concentration required” value [7] was 300 µM and the Dox/P.a fold change [7] was 1 fold. The “Eryth/E.c: concentration required” value (E. coli (ATCC 25922) [8]) was 300 µM and the Eryth/E.c fold change (E. coli (ATCC 25922) [8]) was 1 fold.
For O=C(NCCCNCCCCCCCCNCCCNC(=O)c1ccc2ccccc2c1)c1ccc2ccccc2c1.O=C(O)C(F)(F)F.O=C(O)C(F)(F)F [Compound 19d, N^1,N^8-Bis(3-(2-naphthamido)propyl)octane-1,8-diaminium 2,2,2-trifluoroacetate], the MIC [1] was 7.9 µM, the MIC (MRSA (ATCC 43300); Staphylococcus aureus) was 40.3 µM and the MIC [2] was 126 µM. The MIC (E. coli (ATCC 25922) [3]) was 126 µM, the MIC [4] was greater than 40.3 µM and the MIC [5, 9] was greater than 40.3 µM. For the same compound, the MIC (C. albicans (ATCC 90028)) was greater than 40.3 µM, the MIC [6, 10] was 40.3 µM and the pIC50 (Cytotoxicity assay) was less than 4.39. For the same compound, the “Hemolysis HC10” value (human red blood cells) was greater than 40.3 µM, the “Dox/P.a: concentration required” value [7] was 15.7 µM and the Dox/P.a fold change [7] was 8 fold. For the same compound, the “Eryth/E.c: concentration required” value (E. coli (ATCC 25922) [8]) was 15.7 µM and the Eryth/E.c fold change (E. coli (ATCC 25922) [8]) was 8 fold.
For O=C(NCCCNCCCCCCCNCCCNC(=O)c1cccc2ccccc12)c1cccc2ccccc12.O=C(O)C(F)(F)F.O=C(O)C(F)(F)F [Compound 17c, N^1,N^7-Bis(3-(1-naphthamido)propyl)heptane-1,7-diaminium 2,2,2-trifluoroacetate], the MIC [1] was 256 µM, the MIC (MRSA (ATCC 43300); Staphylococcus aureus) was greater than 41 µM and the MIC [2] was greater than 256 µM. The MIC (E. coli (ATCC 25922) [3]) was 256 µM, the MIC [4] was greater than 41 µM and the MIC [5, 9] was greater than 41 µM. It also gave an MIC (C. albicans (ATCC 90028)) greater than 41 µM, an MIC [6, 10] greater than 41 µM and a pIC50 (Cytotoxicity assay) of less than 4.39. For the same compound, the “Hemolysis HC10” value (human red blood cells) was greater than 41.0 µM, the “Dox/P.a: concentration required” value [7] was 64 µM and the “Eryth/E.c: concentration required” value (E. coli (ATCC 25922) [8]) was 64 µM. For the same compound, the Eryth/E.c fold change (E. coli (ATCC 25922) [8]) was 4 fold.
Work on O=C(CCC(=O)Nc1ccc2ccccc2c1)NCCCNCCCCCCCNCCCNC(=O)CCC(=O)Nc1ccc2ccccc2c1.O=C(O)C(F)(F)F.O=C(O)C(F)(F)F [Compound 20c, N^1,N^7-Bis(3-(4-(naphthalen-2-ylamino)-4-oxobutanamido)propyl)heptane-1,7-diaminium 2,2,2-trifluoroacetate] yielded an MIC [1] of 25 µM, an MIC (MRSA (ATCC 43300); Staphylococcus aureus) of 2.2 µM and an MIC [2] greater than 200 µM. For the same compound, the MIC (E. coli (ATCC 25922) [3]) was 25 µM, the MIC [4] was greater than 34.7 µM and the MIC [5, 9] was greater than 34.7 µM. The MIC (C. albicans (ATCC 90028)) was greater than 34.7 µM, the MIC [6, 10] was no more than 0.27 µM and the pIC50 (Cytotoxicity assay) was less than 4.46. For the same compound, the “Hemolysis HC10” value (human red blood cells) was greater than 34.7 µM, the “Dox/P.a: concentration required” value [7] was 6.25 µM and the “Eryth/E.c: concentration required” value (E. coli (ATCC 25922) [8]) was 12.5 µM. The Eryth/E.c fold change (E. coli (ATCC 25922) [8]) was 2 fold.
